Results taken from patent US9233961B2, “Compounds and compositions for the treatment of parasitic diseases” (Novartis AG, priority 2013, dated 2016).
Like-named read-outs stand apart in the source and are kept apart here.

What was measured:
[1] = tested on: L. donovani HU3 strain in mouse peritoneal macrophages; assay: Assay for proliferation of Leishmania parasites in mouse peritoneal macrophages; format: cell-based, Leishmania donovani; conditions: Leishmania donovani, Peritoneal macrophage, read-out: L. donavani Macrophage EC50
Text: Assay for Proliferation of Leishmania Parasites
The activity of a compound according to the present invention for inhibition of parasitemai can be assessed by the parasite proliferation assay. The assay measures the increase in the parasite number in the assayed plate well using a DNA intercalating dye, SYBR Green I® dye (INVITROGEN) to stain Leishmania cell nuclei. It is understood that the assays illustrate the invention without in any way limiting the scope of the invention.
L. donovani HU3 strain is propagated by infecting BALB/c mice through tail vein injection with 10^7 Leishmania parasites. Infected mice are allowed to develop infection during 9-11 weeks post-infection. During this time, the parasites accumulate in the infected mouse spleens to large numbers, and the infected mice serve as the source of parasites for the in vitro measurement of compound efficacies. To assay a compound for anti-leishmanial activity, peritoneal macrophages isolated from non-infected BALB/c mice are seeded into 384-well plates at density 2×10^4 macrophages per well in […] of medium (RPMI 1640, 10% […], 10 mM HEPES, 1 mM sodium pyruvate, 1% Pen/Strep). Subsequently, the seeded plates are placed into an incubator set to maintain 37° C. temperature and atmosphere with 5% CO2. The next day, Leishmania parasites are isolated from the spleens of mice infected for 9-11 weeks and 4×10^5 isolated parasites in […] of the above media are added to each plate well. Plates are then returned into incubators and infection is allowed to proceed for 24 hours. After the infection of macrophages is completed, […] of compounds of the invention in the above medium, which also contains 5% DMSO, are added to plate wells containing infected macrophages. At the same time control compounds (miltefosine and amphotericin B) and DMSO are added to plates to serve as the positive and negative controls, respectively. After the compound addition, the plates are returned into incubator and cells infected with parasites are cultured for 5 days. At the end of cultivation, […] of 8% paraformaldehyde is added to plate wells and incubated for 15 min at room temperature. Following the incubation, the paraformaldehyde from plate wells is aspirated, and […] of PBS containing 0.2% Triton X-100 is added to wells. After 15 min incubation, the solution is aspirated from wells again, and replaced with SybrGreen Dye solution in PBS (1:125,000 dilution). Infected cells are imaged with Evotec Opera high-content microscope, and the number of parasites in well is determined by counting parasite nuclei visualized by staining with SybrGreen dye. The percentage inhibition of 50%, EC50, is calculated for each compound.
The inhibitory efficacy of the compounds of the invention in delaying the proliferation of L. donovani in mouse peritoneal macrophages is provided in Table I, infra.

[2] = tested on: Leishmania donovani axenic amastigote parasites; assay: Leishmania donovani axenic amastigote proliferation assay; format: cell-based
Procedure: Leishmania Donovani Axenic Amastigote Proliferation Assay
Leishmania donovani axenic amastigote parasites are grown at 37° C., 5% CO2 in media made of RPMI 1640, 4 mM L-glutamine, 20% heat inactivated FBS, 100 units/ml of penicillin and 100 μg/ml of streptomycin, 23 μM Folic Acid, 100 μM Adenosine, 22 mM D-glucose, 25 mM MES. The pH of media is adjusted to 5.5 at 37° C. using HCl. 20 μL of media is first dispensed into 384 well plates and 100 nL of the compounds of invention in DMSO are added to the plate wells. At the same time control compounds and DMSO are added to plates to serve as the positive and negative controls, respectively. 40 μL of parasite culture (9600 parasites) are then added to the plate wells. The plates are then placed into incubators. After 2 day incubation, 20 μL of Cell TiterGlo (Promega) is added to the plate wells. The luminescence signal of each well is measured using the Envision reader (Perkin Elmer). The percentage inhibition of 50%, EC50, is calculated for each of the compounds.

[3] = axenic amastigotes in vitro, read-out: L. donovani amastigotes EC50

| SMILES | EC50 [1] [nM] | EC50 [2, 3] [nM] | EC50 ([2]; 48 h, L. donovani axenic amastigotes, 2 day incubation, Cell TiterGlo luminescence, read-out: EC50) [nM] |
| --- | --- | --- | --- |
| O=C(Nc1ccc(Cl)c(-c2nc3ncc(Cl)cc3[nH]2)c1)c1ccco1 [Compound 2] | 4000 | 1390 |  |
| Cc1ccnc2nc(-c3cc(NC(=O)c4ccco4)ccc3Cl)[nH]c12 [Compound 3] | > 50000 | > 25000 |  |
| O=C(Nc1ccc(Cl)c(-c2nc3ncncc3[nH]2)c1)c1ccco1 [Compound 4] | 25500 | 4200 |  |
| Cc1cc2[nH]c(-c3cc(NC(=O)c4ccco4)ccc3Cl)nc2nc1C [Compound 5] | 49400 | > 25000 |  |
| CC(=O)Nc1ccccc1-c1cnc2nc(-c3cc(NC(=O)c4ccco4)ccc3Cl)[nH]c2c1 [Compound 8] | 1720 | 750 |  |
| COc1ncc(-c2cnc3nc(-c4cc(NC(=O)c5ccco5)ccc4Cl)[nH]c3c2)cn1 [Compound 9] | 1200 | 450 |  |
| O=C(Nc1ccc(Cl)c(-c2nc3ncc(-c4ccncc4)cc3[nH]2)c1)c1ccco1 [Compound 10] | 1120 | 890 |  |
| Nc1ccc(-c2cnc3nc(-c4cc(NC(=O)c5ccco5)ccc4Cl)[nH]c3c2)cc1 [Compound 12] | 400 | 258 |  |
| CC(C)CC(=O)Nc1ccc(-c2cnc3nc(-c4cc(NC(=O)c5ccco5)ccc4Cl)[nH]c3c2)cc1 [Compound 13, N-(4-chloro-3-{6-[4-(3-methylbutanamido)phenyl]-1H-imidazo[4,5-b]pyridin-2-yl}phenyl)furan-2-carboxamide] | 115 | 83 | ~80 |
| O=C(Nc1ccc(Cl)c(-c2nc3ncc(-c4cnn(CCN5CCOCC5)c4)cc3[nH]2)c1)c1ccco1 [Compound 14] | 3140 | 3700 |  |
| CN(C)Cc1ccc(-c2cnc3nc(-c4cc(NC(=O)c5ccco5)ccc4Cl)[nH]c3c2)cc1 [Compound 15] | 720 | 6100 |  |
| O=C(Nc1ccc(Cl)c(-c2nc3ncc(-c4ccc(CN5CCOCC5)cc4)cc3[nH]2)c1)c1ccco1 [Compound 16] | 1630 | 2070 |  |
| Nc1ncc(-c2cnc3nc(-c4cc(NC(=O)c5ccco5)ccc4Cl)[nH]c3c2)cn1 [Compound 17] | 1570 | 480 |  |
| CC(=O)Nc1ccc(-c2cnc3nc(-c4cc(NC(=O)c5ccco5)ccc4Cl)[nH]c3c2)cc1 [Compound 18] | 1480 | 300 |  |
| CN1CCN(c2ccc(-c3cnc4nc(-c5cc(NC(=O)c6ccco6)ccc5Cl)[nH]c4c3)cc2)CC1 [Compound 22] | 4600 | 19000 |  |
| Nc1ccccc1-c1cnc2nc(-c3cc(NC(=O)c4ccco4)ccc3Cl)[nH]c2c1 [Compound 23] | 370 | 320 |  |
| Nc1ccc(-c2cnc3nc(-c4cc(NC(=O)c5ccco5)ccc4Cl)[nH]c3c2)cn1 [Compound 24] | 2890 | 165 |  |
| O=C(Nc1ccc(Cl)c(-c2nc3ncc(-c4ccc(OC(F)(F)F)cc4)cc3[nH]2)c1)c1ccco1 [Compound 25] | 9500 | 5600 |  |
| O=C(Nc1ccc(Cl)c(-c2nc3ncc(-c4ccc(OCC5CCOCC5)cc4)cc3[nH]2)c1)c1ccco1 [Compound 26] | 2170 | 680 |  |
| O=C(Nc1ccc(Cl)c(-c2nc3ncc(-c4ccc5c(c4)OCO5)cc3[nH]2)c1)c1ccco1 [Compound 27] | 24400 | 2660 |  |
| CC(C)OC(=O)Nc1ccc(-c2cnc3nc(-c4cc(NC(=O)c5ccco5)ccc4Cl)[nH]c3c2)cc1 [Compound 31] | 450 | 177 |  |
| NC(=O)Nc1ccc(-c2cnc3nc(-c4cc(NC(=O)c5ccco5)ccc4Cl)[nH]c3c2)cc1 [Compound 32] | 15300 | > 25000 |  |
| COC(=O)c1ccc(-c2cnc3nc(-c4cc(NC(=O)c5ccco5)ccc4Cl)[nH]c3c2)cc1 [Compound 35] | 2110 | 234 |  |

| SMILES | EC50 [1] [nM] | EC50 [2, 3] [nM] | EC50 ([2]; 48 h, L. donovani axenic amastigotes, 2 day incubation, Cell TiterGlo luminescence, read-out: EC50) [nM] |
| --- | --- | --- | --- |
| CC(C)OC(=O)Nc1ccccc1-c1cnc2nc(-c3cc(NC(=O)c4ccco4)ccc3Cl)[nH]c2c1 [Compound 37] | 550 | 460 |  |
| C[C@@H](CO)NCc1cnc2nc(-c3cc(NC(=O)c4ccco4)ccc3Cl)[nH]c2c1 [Compound 38] | > 50000 | > 25000 |  |
| Cc1cc(-c2cnc3nc(-c4cc(NC(=O)c5ccco5)ccc4Cl)[nH]c3c2)cc(C)n1 [Compound 39] | 9600 | 570 |  |
| O=C(Nc1ccc(Cl)c(-c2nc3ncc(-c4ccc(OCCn5cccn5)cc4)cc3[nH]2)c1)c1ccco1 [Compound 40] | 970 | 610 |  |
| O=C(Nc1cccc(-c2nc3ncc(-c4ccc(OC(F)(F)F)cc4)cc3[nH]2)c1)c1ccco1 [Compound 41] | 2200 | 5900 |  |
| O=C1NC(=O)C(c2ccc(-c3cnc4nc(-c5cc(NC(=O)c6ccco6)ccc5Cl)[nH]c4c3)cc2)N1 (stereo not drawn) [Compound 42] | 4000 | 1390 |  |
| Cc1cc(COc2ccc(-c3cnc4nc(-c5cc(NC(=O)c6ccco6)ccc5Cl)[nH]c4c3)cc2)no1 [Compound 44] | 820 | 283 |  |
| O=C(Nc1ccc(-c2cnc3nc(-c4cc(NC(=O)c5ccco5)ccc4Cl)[nH]c3c2)cc1)NC1CC1 [Compound 45] | 3400 | 1470 |  |
| CC(C)C(=O)Nc1ccc(-c2cnc3nc(-c4cc(NC(=O)c5ccco5)ccc4Cl)[nH]c3c2)cc1 [Compound 53] | 154 | 112 |  |
| CNC(=O)c1ccc(-c2cnc3nc(-c4cc(NC(=O)c5ccco5)ccc4Cl)[nH]c3c2)cn1 [Compound 54] | 272 | 226 |  |
| O=C(Nc1ccc(Cl)c(-c2nc3ncc(-c4ccc(OCCN5CCCC5)cc4)cc3[nH]2)c1)c1ccco1 [Compound 55] | 6700 | 2060 |  |
| O=C(Nc1ccc(Cl)c(-c2nc3ncc(-c4ccc(-n5cccn5)cc4)cc3[nH]2)c1)c1ccco1 [Compound 56] | 16000 | 3200 |  |
| CNC(=O)Nc1ccc(-c2cnc3nc(-c4cc(NC(=O)c5ccco5)ccc4Cl)[nH]c3c2)cc1 [Compound 57] | > 50000 | 1830 |  |
| COCCOc1ccc(-c2cnc3nc(-c4cc(NC(=O)c5ccco5)ccc4Cl)[nH]c3c2)cc1 [Compound 60] | 3500 | 800 |  |
| CNC(=O)c1ccc(-c2cnc3nc(-c4cc(NC(=O)c5ccco5)ccc4Cl)[nH]c3c2)cc1 [Compound 64] | > 28900 | 680 |  |
| CN(C)c1ccc(-c2cnc3nc(-c4cc(NC(=O)c5ccco5)ccc4Cl)[nH]c3c2)cn1 [Compound 65] | 1580 | 197 |  |
| NS(=O)(=O)c1ccc(-c2cnc3nc(-c4cc(NC(=O)c5ccco5)ccc4Cl)[nH]c3c2)cc1 [Compound 66] | > 39100 | 4600 |  |
| CN(C)c1ccc(-c2cnc3nc(-c4cc(NC(=O)c5ccco5)ccc4Cl)[nH]c3c2)cc1 [Compound 67] | 2500 | 2120 |  |
| O=C(Nc1ccc(Cl)c(-c2nc3ncc(-c4ccc(N5CCCC5)cc4)cc3[nH]2)c1)c1ccco1 [Compound 68] | 4900 | 2850 |  |
| O=C(Nc1ccc(Cl)c(-c2nc3ncc(-c4ccc(OCCn5ccnc5)cc4)cc3[nH]2)c1)c1ccco1 [Compound 71] | 1860 | 4000 |  |
| Cc1c[nH]nc1-c1cnc2nc(-c3cc(NC(=O)c4ccco4)ccc3Cl)[nH]c2c1 [Compound 73] | 8200 | 820 |  |
| CC(C)Cc1cnc2nc(-c3cc(NC(=O)c4ccco4)ccc3Cl)[nH]c2c1 [Compound 76] | > 50000 | > 25000 |  |
| CC(C)c1cnc2nc(-c3cc(NC(=O)c4ccco4)ccc3Cl)[nH]c2c1 [Compound 77] | 35000 | 6700 |  |
